Values quoted from earlier work in patent US20020156056A1, “Oral fast-dissolving compositions for dopamine agonists” (priority 1997, published 2002).

Experiments:
[1] = in vivo

SMILES	Share of the drug converted to dopamine in peripheral tissues [1]	Share of the drug that enters the brain [1]	Adverse effects of intranasal administration (intranasal)	Adverse findings in long-term studies of oral tablets (oral tablets, studies stopped after 7-10 days)	Adverse effects of sub-lingual tablets (sub-lingual tablets, prolonged use)
N[C@@H](Cc1ccc(O)c(O)c1)C(=O)O [levodopa]	about 95%	less than 1%			
CN1CCc2cccc3c2C1Cc1ccc(O)c(O)c1-3 (centres unmarked) [apomorphine, 5,6,6a,7-tetrahydro-6-methyl-4H-dibenzo[de,g]quinoline-10,11-diol]			transient nasal blockage, burning sensation and swollen nose and lips	unexplained rises in blood urea nitrogen	severe stomatitis on prolonged use with buccal mucosal ulceration in half the patients treated
